Laboratory results from patent publication US7947466B2 (priority 2003, dated 2011).
Entries after “also recorded” stand apart in the source; their conditions may differ. Read-outs that look alike come from different tables or passages of the source.

B1: α-Cobratoxin: α-neurotoxin, peptide toxin from elapid venom (protein)
chain: IRCFITPDITSKDCPNGHVCYTKTWCDAFCSIRGKRVDLGCAATCPTVKTGVDIQCCSTDNCNPFPTRKRP

Assays:
Lymnaea AChBP [1] = molecular target: T1, Lymnaea AChBP (Lymnaea stagnalis, UniProt P58154); assay: biochemical; assay type: binding
Aplysia AChBP [2] = molecular target: T2, Aplysia AChBP (Aplysia californica, UniProt Q8WSF8); assay: biochemical; assay type: binding
T2 sequence (Q8WSF8 18-236): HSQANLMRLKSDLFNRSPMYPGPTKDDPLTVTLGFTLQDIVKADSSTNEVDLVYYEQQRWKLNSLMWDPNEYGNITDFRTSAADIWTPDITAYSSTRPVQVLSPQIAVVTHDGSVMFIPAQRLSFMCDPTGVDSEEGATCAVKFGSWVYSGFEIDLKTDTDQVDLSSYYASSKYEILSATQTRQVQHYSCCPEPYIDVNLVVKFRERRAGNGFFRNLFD

Lymnaea AChBP [3] = molecular target: T1, Lymnaea AChBP; conditions: read-out: Lymnaea Kd; cited from earlier work
Target sequence in this assay (P58154 20-229 limits assumed): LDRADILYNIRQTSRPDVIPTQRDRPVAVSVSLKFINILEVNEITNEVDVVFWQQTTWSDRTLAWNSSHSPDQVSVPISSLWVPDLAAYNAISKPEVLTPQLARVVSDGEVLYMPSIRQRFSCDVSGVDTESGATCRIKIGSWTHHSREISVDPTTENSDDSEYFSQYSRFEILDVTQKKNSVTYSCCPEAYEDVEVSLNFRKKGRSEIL

Aplysia AChBP [4] = molecular target: T2, Aplysia AChBP; assay: biochemical; assay type: binding; remark: listed apart in the source
Lymnaea AChBP [5] = molecular target: T1, Lymnaea AChBP; assay: biochemical; assay type: binding; remark: listed apart in the source
Target sequence in this assay (P58154 20-229 limits assumed): as above

Lymnaea AChBP [6] = molecular target: T1, Lymnaea AChBP; assay type: binding
Target sequence in this assay (P58154 20-229 limits assumed): as above

Row | Molecule | k1 (Lymnaea AChBP [1]) | k−1 (Lymnaea AChBP [1]) | Kd (Lymnaea AChBP [1]; read-out: Kd) | Kd Ratio L/A (Aplysia AChBP [2]) | k1 Lymnaea (Lymnaea AChBP [1]) | k−1 Lymnaea (Lymnaea AChBP [1]) | k1 Aplysia (Aplysia AChBP [2]) | k−1 Aplysia (Aplysia AChBP [2]) | Kd (Aplysia AChBP [4]) | change of tryptophan fluorescence on binding, A-AChBP (Aplysia AChBP [4]) | Kd (Lymnaea AChBP [1]) | other results
1 | 5-Dimethylaminonaphthylsulfonamidoethyltrimethylammonium [Dansyl-C2-choline] | 2.1e+08 M⁻¹ s⁻¹ | 2.9 s⁻¹ | 14 nM |  |  |  |  |  |  |  |  | 
2 | 5-Dimethylaminonaphthylsulfonamidohexyltrimethylammonium [Dansyl-C6-choline] | 1.3e+08 M⁻¹ s⁻¹ | 7.6 s⁻¹ | 58 nM | 0.069 |  |  |  |  |  |  |  | Kd (Lymnaea AChBP [3]): 110 nM; Kd (Aplysia AChBP [4]; read-out: Aplysia Kd): 1600 nM
3 | CN1CCCC1c1cccnc1 (single isomer, unassigned; (-)) [(−)-Nicotine] | 1.5e+08 M⁻¹ s⁻¹ | 5.7 s⁻¹ |  |  | 1.5e+08 M⁻¹ s⁻¹ | 5.7 s⁻¹ | 2.3e+08 M⁻¹ s⁻¹ | 49 s⁻¹ | 245 nM | markedly quenched fluorescence |  | change of tryptophan fluorescence on binding, L-AChBP (Lymnaea AChBP [5]): markedly quenched fluorescence
4 | CC(=O)OCC[N+](C)(C)C [Acetylcholine] |  |  |  |  |  |  |  |  | 33000 nM |  |  | 
5 | C[N+](C)(C)CCOC(N)=O [Carbachol] |  |  |  | 0.023 |  |  |  |  | 240000 nM | enhanced fluorescence emission |  | Kd (Lymnaea AChBP [5]): 5600 nM
6 | C[N+](C)(C)CCCCCCCCCC[N+](C)(C)C [Decamethonium] | 3.2 ± 0.17 ×10^8 M^−1 s^−1 | 120 ± 17 s⁻¹ |  |  |  |  |  |  |  |  | 380 nM | 
7 | Clc1ccc(C2CC3CCC2N3)cn1 (stereo not shown) [Epibatidine] | 1.7 ± 0.26 ×10^8 M^−1 s^−1 | 0.027 ± 0.037 s⁻¹ |  | 0.011 | 1.7e+08 M⁻¹ s⁻¹ | 0.027 s⁻¹ | 2.5e+08 M⁻¹ s⁻¹ | 3.4 s⁻¹ |  | markedly quenched fluorescence | 0.16 nM | change of tryptophan fluorescence on binding, L-AChBP (Lymnaea AChBP [5]): markedly quenched fluorescence; Kd (Aplysia AChBP [2]): 14 nM; quenching of the intrinsic tryptophan fluorescence (Lymnaea AChBP [6]): about 50%
8 | CC[N+](CC)(CC)CCOc1cccc(OCC[N+](CC)(CC)CC)c1OCC[N+](CC)(CC)CC [Gallamine] | 2.5 ± 0.14 ×10^8 M^−1 s^−1 | 36 ± 6.5 s⁻¹ |  | 1.2 | 2.5e+08 M⁻¹ s⁻¹ | 36 s⁻¹ | 2.5e+08 M⁻¹ s⁻¹ | 65 s⁻¹ | 120 nM | enhanced fluorescence emission | 140 nM | change of tryptophan fluorescence on binding, Lymnaea AChBP (Example 1) (Lymnaea AChBP [1]): enhancement of the tryptophan fluorescence; also recorded: increase in fluorescence; change of tryptophan fluorescence on binding, L-AChBP (Lymnaea AChBP [5]): enhanced tryptophan fluorescence
9 | CCN1C[C@]2(COC(=O)c3ccccc3N3C(=O)C[C@H](C)C3=O)CC[C@H](OC)[C@@]34[C@@H]5C[C@H]6[C@H](OC)[C@@H]5[C@](O)(C[C@@H]6OC)[C@@](O)([C@@H](OC)[C@H]23)[C@@H]14 [Methyllycaconitine] |  |  |  | 0.14 | 1.3e+07 M⁻¹ s⁻¹ | 0.005 s⁻¹ | 4.4e+07 M⁻¹ s⁻¹ | 0.12 s⁻¹ |  |  |  | Kd (Aplysia AChBP [2]): 2.8 nM; Kd (Lymnaea AChBP [3]): 0.41 nM
10 | O=C1C[C@@H]2OCC=C3CN4CC[C@]56c7ccccc7N1[C@H]5[C@H]2[C@H]3C[C@H]46 [Strychnine] |  |  |  |  |  |  |  |  |  |  | 23 nM | Kd (Aplysia AChBP [2]): 15 nM
11 | COc1cc2c3cc1Oc1cc(ccc1O)C[C@@H]1c4c(cc(OC)c(O)c4Oc4ccc(cc4)C[C@@H]3N(C)CC2)CC[N+]1(C)C [d-Tubocurarine] | 2e+08 M⁻¹ s⁻¹ | 30 s⁻¹ | 150 nM |  |  |  |  |  |  |  |  | 
12 | α-Bungarotoxin | 0.0097 ± 0.002 ×10^8 M^−1 s^−1 | 0.0017 ± 0.0003 s⁻¹ | 1.8 nM | 0.0071 | 900000 M⁻¹ s⁻¹ | 0.001 s⁻¹ | 1e+06 M⁻¹ s⁻¹ | 0.32 s⁻¹ |  |  |  | rate of association slower than for epibatidine (Lymnaea AChBP [1]): ~200 fold; unimolecular step k2 (slow phase limiting value) (Lymnaea AChBP [1]): 0.34 s⁻¹; Kd (Lymnaea AChBP [3]): 1.8 nM; quenching of the intrinsic tryptophan fluorescence (Lymnaea AChBP [6]): 15-20%; lower affinity for A-AChBP than for L-AChBP (Aplysia AChBP [4]): 100 fold; Kd (Aplysia AChBP [4]; read-out: Aplysia Kd): 250 nM
13 | B1 | 3.3e+06 M⁻¹ s⁻¹ | 0.011 s⁻¹ | 3.2 nM |  |  |  |  |  |  |  |  | 
